Assay results as given in patent publication US20080090847A1, “HETEROCYCLIC COMPOUNDS AND USES THEREOF AS D-ALANYL-D-ALANINE LIGASE INHIBITORS” (PLIVA D.D., priority 2001, published 2008).
Like-named read-outs stand apart in the source and are kept apart here.

Assays:
Type in all cases: biochemical
[1] = molecular target: E. coli ligase (D-Ala-D-Ala ligase) (Escherichia coli, UniProt P07862); experiment: D-Ala-D-Ala ligase Ki determination (PK/LDH coupled assay), E. coli ligase
Source text: (§1) Inhibition of D-Ala-D-Ala ligase can be assayed for using the pyruvate kinase/lactate dehydrogenase (PK/LDH) assay described in Example 2, and as described in the literature (e.g., in Sarthy et al., Anal. Biochem., 254:288-290, 1997). In the bacterial cell wall synthesis process, the ligase catalyzes the conversion of adenosine triphosphate (ATP) to adenosine diphosphate (ADP) concurrent with the ligation of two D-alanine residues to form D-alanyl-D-alanine. PK then regenerates ATP from the ADP thus created simultaneously with the conversion of phosphopyruvate to pyruvate. LDH catalyzes the reduction of pyruvate to lactate by converting NADH to NAD^+. By monitoring the production rate of NAD^+ (e.g., using UV/Vis spectroscopy), D-Ala-D-Ala ligase activity can be ascertained.
(§2) The protein sequence for the enzyme D-ala-D-ala ligase has been determined in a variety of different bacterial species using standard techniques in biochemistry (see Table 5). The protein sequence from any species can be overexpressed in an appropriate host organism such as E. coli using standard molecular biology techniques. The ligase enzyme can be harvested, purified, and used in the above described assay for the determination of inhibitory activity.
(§3) The synthetic analogs of Example 1 were dissolved in dimethylsulfoxide (DMSO) at a concentration of 100 mM on the day of screening, using a vortex mixer and sonication if necessary for dissolution. The solutions were kept at room temperature until screening was completed.
(§4) A 10 mM NADH (Sigma) stock solution was prepared freshly on the day of screening by dissolving 32 μmol NADH in 3.2 ml double-distilled water. The NADH solution was kept on ice. Stock solutions containing 50 mM phosphoenolpyruvate (PEP; Sigma), 500 μM HERMES, 30 mM adenosine triphosphate (ATP; Sigma), 200 mM D-alanine (Sigma), and 4× core buffer (i.e., 400 mM Hepes, 40 mM magnesium chloride, and 40 mM potassium chloride), were also stored on ice. A stock solution of pyruvate kinase/lactate dehydrogenase (PK/LDH) was also obtained from Sigma.
(§5) Table of Final concentrations are dependent on the type of screening:
(§6) For each set of test compounds, two 96-well plates were used: an inhibitor plate and an enzyme plate. The test compounds correspond to rows A-G of the plates. Adenosine (Sigma) dissolved in DMSO, used as a control, corresponds to row H of each plate.
(§7) The enzyme solution was allowed to equilibrate to 25° C.
(§8) Dilutions were prepared in the inhibitor plate as follows: 50 μl DMSO was added to each well of columns 1-11, rows A-G, of the inhibitor plate. 50 μl DMSO were added to each well of columns 1-11, row H. 100 μl of the 100 mM test solutions were added to column 12, rows A-G (i.e., the first compound in row A, the second compound in row B, and so on). 100 μl of a 100 mM Adenosine solution was added to column 12, row H.
(§9) 50 μl of the test solution was transferred from column 12 in each row to column 11 of the a same row, mixing the solution with the DMSO. 50 μl of solution was then transferred from column 11 in each row to column 10 in the same row, 50 μl from column 10 was transferred to column 9, and so on, down to column 2. No solution was transferred to column 1. Multichannel pipettors were used in making the serial dilution.
(§10) 120 μl of the enzyme solution was added to each well of the enzyme plate.
(§11) The substrate solutions were brought to 25° C.
(§12) The analogs and enzymes were then incubated at 25° C. Since the reactions were initiated in columns, the analog addition is also in columns. At t=0 minutes, 5 μl analog was transferred from each well of columns 1-4 of the inhibitor plate to the corresponding well of the enzyme plate. At t=4 minutes, 5 μl analog was transferred from each well of columns 5-8 of the inhibitor plate to the corresponding well of the enzyme plate. At t=8 minutes, 5 μl analog was transferred from each well of columns 9-12 of the inhibitor plate to the corresponding well of the enzyme plate. The inhibitor plate was then frozen. […]

[2] = molecular target: Staph ligase (D-Ala-D-Ala ligase) (Staphylococcus aureus, UniProt Q5HEB7); experiment: D-Ala-D-Ala ligase Ki determination (PK/LDH coupled assay), Staph ligase
Source text: as §1, §2, §3, §4, §5, §6, §7, §8, §9, §10, §11, §12

[3] = molecular target: H. Influenzae ligase (D-Ala-D-Ala ligase) (Haemophilus influenzae, UniProt P44405); experiment: D-Ala-D-Ala ligase Ki determination (PK/LDH coupled assay), H. influenzae ligase; conditions: Ki/ATP, avg, read-out: H. Influenzae ligase Ki/ATP (uM) avg
Source text: as §1, §2, §3, §4, §5, §6, §7, §8, §9, §10, §11, §12

[4] = molecular target: T1, Strep ligase (D-Ala-D-Ala ligase) (Streptococcus pneumoniae serotype 4, UniProt P0CB57); experiment: D-Ala-D-Ala ligase Ki determination (PK/LDH coupled assay), Strep ligase; conditions: Ki/ATP, avg, read-out: Strep ligase Ki/ATP (uM) avg
T1 sequence (P0CB57 1-347): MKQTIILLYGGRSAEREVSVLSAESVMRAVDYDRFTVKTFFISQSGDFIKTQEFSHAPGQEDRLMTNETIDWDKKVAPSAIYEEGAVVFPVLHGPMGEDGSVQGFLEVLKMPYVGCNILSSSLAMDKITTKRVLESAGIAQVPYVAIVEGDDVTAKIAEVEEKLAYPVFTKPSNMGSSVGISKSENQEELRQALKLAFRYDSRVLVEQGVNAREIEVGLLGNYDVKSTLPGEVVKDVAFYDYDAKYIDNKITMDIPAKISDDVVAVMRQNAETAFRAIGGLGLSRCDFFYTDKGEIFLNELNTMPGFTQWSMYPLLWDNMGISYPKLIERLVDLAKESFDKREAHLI
Source text: as §1, §2, §3, §4, §5, §6, §7, §8, §9, §10, §11, §12

[5] = Table 1, read-out: Ki (E. coli ligase)/μM
[6] = Table 5, Ki/ATP, avg, read-out: Staph ligase Ki/ATP (uM) avg
[7] = E. coli ligase Ki/ATP (uM) avg, Table 5, Ki/ATP, avg
[8] = Table 2, read-out: Staph ligase

Staph ligase (D-Ala-D-Ala ligase), sequence (Q5HEB7 whole entry): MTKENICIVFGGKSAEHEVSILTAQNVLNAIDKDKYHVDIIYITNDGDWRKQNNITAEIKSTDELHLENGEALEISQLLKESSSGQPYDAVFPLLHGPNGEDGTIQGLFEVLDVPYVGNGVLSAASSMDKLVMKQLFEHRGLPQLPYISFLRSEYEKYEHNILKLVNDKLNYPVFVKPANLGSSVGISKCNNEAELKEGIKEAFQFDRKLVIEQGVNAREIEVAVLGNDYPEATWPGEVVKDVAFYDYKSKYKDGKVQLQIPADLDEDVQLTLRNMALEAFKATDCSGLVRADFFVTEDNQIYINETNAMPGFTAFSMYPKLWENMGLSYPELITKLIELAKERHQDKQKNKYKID
H. Influenzae ligase (D-Ala-D-Ala ligase), sequence (P44405 whole entry): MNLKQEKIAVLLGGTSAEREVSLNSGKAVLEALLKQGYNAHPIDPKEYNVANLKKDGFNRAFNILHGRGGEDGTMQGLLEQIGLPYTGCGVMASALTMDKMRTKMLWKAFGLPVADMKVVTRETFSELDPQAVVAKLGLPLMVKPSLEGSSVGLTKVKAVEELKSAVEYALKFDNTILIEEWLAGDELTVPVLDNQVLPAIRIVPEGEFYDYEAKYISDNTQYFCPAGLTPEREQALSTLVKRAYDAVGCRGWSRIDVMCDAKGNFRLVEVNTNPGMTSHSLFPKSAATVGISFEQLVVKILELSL

Compound `Cc1ccc(C(C)C)cc1OCc1ncc2c(N)nc(N)nc2n1` has a Ki [1, 5] of 20 µM.
`CC(c1cccc2ccccc12)N(CCCCN)c1ncc2c(N)nc(N)nc2n1` (stereo not shown) [drawing 55] showed a Ki [2, 6] of 32 µM, a Ki ([3]; Table 5) of 4.2 µM and a Ki ([4]; Table 5) of 23.1 µM. It also gave a Ki [1, 7] of 0.135 µM.
`CC(C)c1nc2nc(N)nc(N)c2nc1C(C)C` gave a Ki [1, 5] of 37 µM.
`Cc1ccc(C(C)N(C)c2ncc3c(N)nc(N)nc3n2)c2ccccc12` (stereo not shown) [—CH3|CH3|R/S|CH3, N7-Methyl-N7-[1-(4-methyl-naphthalen-1-yl)-ethyl]-pyrimido[4,5-d]pyrimidine-2,4,7-triamine] gave a Ki [2, 8] of 12.3 µM and a Ki ([1]; E. coli ligase (μM), Table 2) of 0.277 µM.
`CC(c1cccc2ccccc12)N(CCCN)c1ncc2c(N)nc(N)nc2n1` (stereo not shown) showed a Ki [2, 6] of 46 µM, a Ki ([3]; Table 5) of 5.5 µM and a Ki ([4]; Table 5) of 81.2 µM. For the same compound, the Ki [1, 7] was 0.457 µM.
`Nc1nc(N)c2cc(NCc3ccc(C(=O)NCc4ccccn4)cc3)ccc2n1` showed a Ki [1, 5] of 73 µM.
`Nc1nc(N)c2cnc(NCc3ccc(Cl)c(Cl)c3)nc2n1` showed a Ki [1, 5] of 20 µM.
With `Nc1nc(N)c2ncc(CNC(CO)CSCc3ccccc3)nc2n1` (stereo not shown) the Ki [1, 5] was 55 µM.
With `CC(c1cccc2ccccc12)N(CC(O)C(=O)O)c1ncc2c(N)nc(N)nc2n1` (stereo not shown) the Ki [1, 5] was 0.5 µM.
For `C[C@@H](c1cccc2ccccc12)N(CC(O)C(=O)O)c1ncc2c(N)nc(N)nc2n1` (stereo partly shown), the Ki ([2]; Table 4, Ki/ATP, avg, read-out: Staph ligase Ki/ATP (uM) avg) was 4.3 µM, the Ki ([3]; Table 4) was 3.5 µM and the Ki ([4]; Table 4) was 4.3 µM. It also gave a Ki ([1]; E. coli ligase Ki/ATP (uM) avg, Table 4, Ki/ATP, avg) of 1.4 µM.
For `CCN(c1ncc2c(N)nc(N)nc2n1)C(C)c1ccc(C)c2ccccc12` (stereo not shown) [—CH2CH3|CH3|R/S|CH3], the Ki [2, 8] was 38.5 µM and the Ki ([1]; E. coli ligase (μM), Table 2) was 0.21 µM.
Compound `Nc1nc(N)c2cnc(N(CCCO)Cc3ccccc3)nc2n1` has a Ki [1, 5] of 14 µM.
Work on `C[C@H](c1ccc(F)c2ccccc12)N(C)c1ncc2c(N)nc(N)nc2n1` [CH3|CH3|R|F] yielded a Ki [2, 8] of 27 µM and a Ki ([1]; E. coli ligase (μM), Table 2) of 0.104 µM.
Compound `CN(Cc1cnc2ccccc2c1)c1ncc2c(N)nc(N)nc2n1` has a Ki [1, 5] of 1 µM.
`CC(c1cccc2ccccc12)N(C)c1ncc2c(N)nc(N)nc2n1` (stereo not shown) [—CH3|CH3|R/S|H] gave a Ki [2, 8] of 9.28 µM and a Ki ([1]; E. coli ligase (μM), Table 2) of 0.718 µM.
Work on `Nc1nc(N)c2cnc(N[C@H]3CCCc4ccccc43)nc2n1` yielded a Ki [1, 5] of 16 µM.
With `Nc1nc(N)c2cnc(N3CCC(O)(c4cccc(F)c4)CC3)nc2n1` the Ki [1, 5] was 0.59 µM.
`CC(c1ccc(Cl)c2ccccc12)N(C)c1ncc2c(N)nc(N)nc2n1` (stereo not shown) [—CH3|CH3|R/S|Cl] showed a Ki [2, 8] of 4.9 µM and a Ki ([1]; E. coli ligase (μM), Table 2) of 0.201 µM.
Work on `CCOc1ccc2ccccc2c1CN(CC(=O)O)c1ncc2c(N)nc(N)nc2n1` yielded a Ki [1, 5] of 8.7 µM.
With `Nc1nc(N)c2cnc(CSc3ccc(Cl)cc3)nc2n1` the Ki [1, 5] was 12 µM.
In the case of `CN(Cc1cc2ccccc2s1)c1ncc2c(N)nc(N)nc2n1`, the Ki [1, 5] is reported as 2.9 µM.
Compound `CCN(c1ncc2c(N)nc(N)nc2n1)[C@H](C)c1ccc(C)c2ccccc12` [—CH2CH3|CH3|R|CH3] has a Ki [2, 8] of 71 µM and a Ki ([1]; E. coli ligase (μM), Table 2) of 0.102 µM.
